Measured values reported in patent US20130172248A1, “3-[4-(PHENYLAMINOOXALYLAMINO)PHENYL]HEX-4-YNOIC ACIDS, PROCESS FOR PREPARATION THEREOF AND USE THEREOF AS A MEDICAMENT” (priority 2012, published 2013).

Experiments:
GPCR GPR40 (human) = biological target: T1, GPCR GPR40 (human) (Homo sapiens, UniProt O14842); assay: In vitro FLIPR assay with recombinant HEK293 cells which express the GPCR GPR40 (intracellular Ca2+); type: cell-based; settings: recombinant HEK293 cells expressing human GPR40; 100% = 10 μM linoleic acid reference agonist; read-out: hGPR40 EC50
T1 construct: expressed in transfected cells; host or cells: HEK293
T1 sequence (O14842 whole entry): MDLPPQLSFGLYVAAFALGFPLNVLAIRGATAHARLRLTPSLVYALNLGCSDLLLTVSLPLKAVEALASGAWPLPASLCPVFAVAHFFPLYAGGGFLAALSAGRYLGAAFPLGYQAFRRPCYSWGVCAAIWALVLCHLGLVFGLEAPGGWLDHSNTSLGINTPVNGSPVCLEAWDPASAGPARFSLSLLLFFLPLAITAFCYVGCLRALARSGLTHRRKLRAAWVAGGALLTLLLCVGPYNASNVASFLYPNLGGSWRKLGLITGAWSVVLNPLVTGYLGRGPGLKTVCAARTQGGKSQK
Description: In Vitro FLIPR Assay with Recombinant Cells which Express the GPCR GPR40
Function-testing assays were performed by means of the FLIPR technique (“Fluorescence Imaging Plate Reader”, Molecular Devices Corp.). For this purpose, agonist-induced changes were determined in the intracellular concentration of Ca^2+ in recombinant HEK293 cells which expressed the GPCR GPR40 (human).
For the studies, cells were sown into 96-well microtiter plates (60 000 cells/well) and left to grow overnight. The medium was removed and the cells were incubated in buffer which contained the fluorescent dye Fluo-4. After this loading with dye, the cells were washed, test substance was added and changes were measured in the intracellular Ca^2+ concentration in the FLIPR instrument. Results were presented as the percentage change relative to the control (0%: no test substance added; 100%: 10 μM linoleic acid reference agonist added) and used for calculation of dose/efficacy curves, and the EC50 values were thus determined. The mean effective concentration (EC50) is the dose at which a half-maximum effect is observed.

human S1P1 receptor = assay: Determination of S1P1 receptor activation (intracellular calcium release, FLIPR, CHO cells); type: cell-based; settings: compound at 10 μM; in percent of activation by 100 nM S1P
Description: Determination of S1P1 Receptor Activation
The activation of the S1P1 receptor by the chemical compounds described in the present invention disclosure was determined via the S1P1 receptor-mediated release of intracellular calcium.
The CHO (chinese hamster ovarian) cells used here was stably overexpressed with the human S1P1 receptor (Flp-In System, Invitrogen). In order to amplify the signal transduction of the receptor in the direction of a cellular calcium response, a receptor modified at the C terminus was used, which contained the sequence of a modified G protein (Gαi4qi4) (WO 02/04665). The changes in intracellular calcium were determined by means of the calcium-sensitive fluorescent dye Fluo-4 (Invitrogen) in an appropriate plate reader (FLIPR, […]).
To prepare the measurement, the cells were sown in 96-well plates (Becton Dickinson, Biocoat cellware, poly-D-lysine coated, #354640) with 40 000 cells per cavity between 18 and 24 hours before the calcium measurement. For the intervening period, the cells were cultivated in an incubator under 95% air humidity with 5% CO2 gas in a medium based on F-12 Glutamax (Gibco #31765), which was additionally supplemented with 1% (vol/vol) penicillin/streptomycin (PAN, #P06-07100), 10% (vol/vol) fetal calf serum (Hyclone charcoal/dextran treated FBS #SH30068) and Hygromycin B (final concentration 300 mg/l; Invitrogen, #10687-010).
For calcium measurement, the cells were laden beforehand with the acetoxymethyl ester derivative of the Fluo-4 dye (Fluo-4 AM, Invitrogen, #F14202) for 60 min. During the loading, which took place in the incubator under the conditions specified above, the cells were incubated with an HBSS buffer (Hanks' Balanced Salt Solution; Invitrogen #14065049) which had been supplemented with Fluo-4 AM (acetoxymethyl ester of Fluo-4; 2 μM; all figures are based on final concentrations), Pluronic® F-127 (0.05% vol/vol; Invitrogen, #P-3000 MP), HEPES (20 mM; Gibco #15630), probenecid (2.5 mM; Sigma #P-8761) and bovine serum albumin (0.05%; Sigma #A-6003). This buffer was finally adjusted to a pH of 7.5 with sodium hydroxide.
During the loading with Fluo-4, the acetoxymethyl ester is cleaved by intracellular esterases, and so there is intracellular accumulation of the dye. The loading of the cells was ended by washing three times (Tecan, Power Washer) with a wash buffer.
The wash buffer was also used for the later fluorescence-based calcium measurement. In this case, the laden and washed cells were stimulated with the compounds described (dissolved in DMSO; maximum final DMSO concentration 0.3%) in different concentrations. […]
All measurements were conducted as triplicates, and the individual values thereof were averaged for further calculation. The percentage activation of the S1P1 receptor, which was caused in some cases by the compounds described, was calculated using the S1P-related calcium response (positive control). Before this calculation, a background correction took place, by subtracting the value of the base control (DMSO control) from all other fluorescence values detected.
Using the specific cellular fluorescence response at different concentrations of the compounds used, concentrations were calculated at which the cell response was at half maximum (EC50 value). […] Here too, the percentage activation of the receptor was calculated using the positive control (S1P, 100 nM) and base control (DMSO control).

EC50 (GPCR GPR40 (human)) [nM] | Compound | S1P1 receptor activation, % activation (human S1P1 receptor) [%]
0.4 | CC#C[C@@H](CC(=O)O)c1ccc(NC(=O)C(=O)Nc2cc(C(F)(F)F)ccc2C(F)(F)F)cc1 [Example 1, (S)-3-{4-[(2,5-bis(trifluoromethyl)phenylaminooxalyl)amino]phenyl}hex-4-ynoic acid] | 0
2 | CC#C[C@@H](CC(=O)O)c1ccc(NC(=O)C(=O)Nc2cccc(C(C)(C)C)c2)cc1 [Example 2, (S)-3-{4-[(3-tert-butylphenylaminooxalyl)amino]phenyl}hex-4-ynoic acid] | 1
4 | CC#C[C@@H](CC(=O)O)c1ccc(NC(=O)C(=O)Nc2cc(C(F)(F)F)ccc2C)cc1 [Example 3, (S)-3-{4-[(2-methyl-5-trifluoromethylphenylaminooxalyl)amino]phenyl}hex-4-ynoic acid] | 1
7 | CC#C[C@@H](CC(=O)O)c1ccc(NC(=O)C(=O)Nc2cccc(C(C)C)c2)cc1 [Example 4, (S)-3-{4-[(3-isopropylphenylaminooxalyl)amino]phenyl}hex-4-ynoic acid] | 0
2 | CC#C[C@@H](CC(=O)O)c1ccc(NC(=O)C(=O)Nc2cc(C(F)(F)F)ccc2Cl)cc1 [Example 5, (S)-3-{4-[(2-chloro-5-trifluoromethylphenylaminooxalyl)amino]phenyl}hex-4-ynoic acid] | 0
734 | CC#C[C@H](CC(=O)O)c1ccc(NC(=O)C(=O)Nc2cc(C(F)(F)F)ccc2C(F)(F)F)cc1 [compound 6, (R)-3-{4-[(2,5-bis(trifluoromethyl)phenylaminooxalyl)amino]phenyl}hex-4-ynoic acid, reference compound] | –
1550 | CC#C[C@H](CC(=O)O)c1ccc(NC(=O)C(=O)Nc2cccc(C(C)(C)C)c2)cc1 [compound 7, (R)-3-{4-[(3-tert-butylphenylaminooxalyl)amino]phenyl}hex-4-ynoic acid, reference compound] | –
1780 | CC#C[C@H](CC(=O)O)c1ccc(NC(=O)C(=O)Nc2cc(C(F)(F)F)ccc2C)cc1 [compound 8, (R)-3-{4-[(2-methyl-5-trifluoromethylphenylaminooxalyl)amino]phenyl}hex-4-ynoic acid, reference compound] | –
2070 | CC#C[C@H](CC(=O)O)c1ccc(NC(=O)C(=O)Nc2cccc(C(C)C)c2)cc1 [compound 9, (R)-3-{4-[(3-isopropylphenylaminooxalyl)amino]phenyl}hex-4-ynoic acid, reference compound] | –
2290 | CC#C[C@H](CC(=O)O)c1ccc(NC(=O)C(=O)Nc2cc(C(F)(F)F)ccc2Cl)cc1 [compound 10, (R)-3-{4-[(2-chloro-5-trifluoromethylphenylaminooxalyl)amino]phenyl}hex-4-ynoic acid, reference compound] | –
